Like-named read-outs stand apart in the source and are kept apart here.
System: human Ewing's sarcoma SK-ES-1
Type: in vivo
Parameters: Tumor volume changes from baseline: Median (nMad): unit not given here
Experimental: This efficacy may be quantified, for example, as changes in tumor volume for each treated (T) and control (C) group, which are calculated for each animal and each day by subtracting the tumor volume on the day of first treatment (staging day) from the tumor volume on the specified observation day. This allows calculating the tumor growth inhibition: ΔT/ΔC=(median delta T/median delta C)×100. Individual tumor volume changes from baseline are thereafter analyzed by a non-parametric two-way ANOVA-TYPE (with factors: group and repeated days) followed by a post-hoc contrasts analysis, with Bonferroni-Holm adjustment for multiplicity, comparing all treated groups to the control group. […] A probability less than 5% (p<0.05) was considered as significant.
Based on the National Cancer Institute (NCl) standards, a ΔT/ΔC≦40% is the minimal level required to declare activity.
The tumor doubling time (in days; Td) was estimated from the plot of the log linear growth of the control group tumors in exponential growth (100 to 1000 mm^3 range) [T. H. Corbett et al., Cancer, 40: 2660-2680 (1977); F. M. Schabel et al., Cancer Drug Development, Part B, Methods in Cancer Research, 17: 3-51, New York, Academic Press Inc. (1979)].
This efficacy may also be quantified by the number of tumor regressions observed after therapy. Individual mice reporting a tumor volume ≦50% of the Day 0 measurement for two consecutive measurements over a seven day period were considered partial responders (PR). Individual mice lacking palpable tumors (<4×4 mm^2 for two consecutive measurements over a seven day period) were classified as complete responders (CR); a CR that persisted until study completion was considered a tumor-free survivor (TFS).
The efficacy of cabazitaxel in comparison with docetaxel on pediatric solid tumors was determined experimentally in the following manner:
The animals subjected to the experiment are subcutaneously grafted unilaterally with approximately 30 mg of a tumor fragment on day 0. The animals are implanted with a human tumor xenografted in immunocompromized mice. Several days post tumor implantation, mice are randomized according to their body weight to the different groups of treatments and controls. The animals are observed every day. The different animal groups are weighed daily during treatment until the maximum weight loss is reached and subsequent full weight recovery has occurred. The groups are then weighed once or twice a week until the end of the trial.
The tumors are measured 1 to 5 times a week, depending on the tumor doubling time, until the tumor reaches approximately 1,000 mm^3, or until the animal dies (if this occurs before the tumor reaches 1,000 mm^3). The animals are necropsied immediately after euthanasia or death.
The selected tumor model was a human Ewing's sarcoma SK-ES-1, xenografted in SCID mice [Fogh J. New York: Plenum Press, 1975].
Cabazitaxel and docetaxel were weighed for each treatment and dissolved in ethanol. Treatment solutions were prepared first by mixing 1 volume of ethanolic stock solution and 1 volume of polysorbate 80, then by adding 18 volumes of glucose 5% in water.
The Td in days was estimated from the plot of the log linear growth of the control group tumors in exponential growth (100 to 1,000 mm^3 range) and the number of tumor regressions observed after therapy.
The following end points have been used: • Toxicity was declared at dosages inducing ≧20% body weight loss or ≧10% drug death; • Relative tumor growth inhibition was determined on day 22 post tumor implantation when the median tumor size in the control group was 456 mm^3; • Antitumor efficacy was determined by calculating the ΔT/ΔC value in percent, according to the above-mentioned formula; • Tumor regressions (as explained above); • Statistical analysis performed (as explained above).

[1] = 3.5 mg/kg per injection (total 7.0) IV days 15; 19
[2] = 3.5 mg/kg per injection (total 7.0) IV days 15; 19; listed as DOCETAXEL
[3] = 3.5 mg/kg per injection (total 7.0) IV days 15; 19; listed as docetaxel
[4] = 5.6 mg/kg per injection (total 11.2) IV days 15; 19
[5] = 5.6 mg/kg per injection (total 11.2) IV days 15; 19; listed as DOCETAXEL
[6] = 9.0 mg/kg per injection (total 18) IV days 15; 19
[7] = 9.0 mg/kg per injection (total 18) IV days 15; 19; listed as DOCETAXEL
[8] = 14.5 mg/kg per injection (total 29) IV days 15; 19
[9] = 14.5 mg/kg per injection (total 29) IV days 15; 19; listed as DOCETAXEL
[10] = 14.5 mg/kg per injection (total 29) IV days 15; 19; listed as docetaxel

Structure (SMILES): CC(=O)O[C@@]12CO[C@@H]1C[C@H](O)[C@@]1(C)C(=O)[C@H](O)C3=C(C)[C@@H](OC(=O)[C@H](O)[C@@H](NC(=O)OC(C)(C)C)c4ccccc4)C[C@@](O)([C@@H](OC(=O)c4ccccc4)[C@H]21)C3(C)C [Docetaxel, docetaxel]
- Average body weight change in % per mouse at nadir [1]: −2.1%
- Drug death [1]: 0/7
- Regressions Complete [1]: 0/7
- Regressions Partial [1]: 0/7
- Tumor free survivors at day 120 [1]: 0/7
- day of nadir [1]: 16 days
- Biological interpretation [2]: Inactive
- ΔT/ΔC in % (day 22) [2]: 72%
- Biological interpretation [3]: inactive
- ΔT/ΔC in % (day 22) [3]: > 40%
- Tumor volume changes from baseline: Median (nMad) (3.5 mg/kg, day 19): 52
- Tumor volume changes from baseline: Median (nMad) (3.5 mg/kg, day 22): 136
- Tumor volume changes from baseline: Median (nMad) (3.5 mg/kg, day 25): 712
- Tumor volume changes from baseline: Median (nMad) (3.5 mg/kg, day 28): 900
- Tumor volume changes from baseline: Median (nMad) (3.5 mg/kg; day 19): 52 (89)
- Tumor volume changes from baseline: Median (nMad) (3.5 mg/kg; day 22): 136
- Tumor volume changes from baseline: Median (nMad) (3.5 mg/kg; day 25): 712 (29.7)
- Tumor volume changes from baseline: Median (nMad) (3.5 mg/kg; day 28): 900
- Average body weight change in % per mouse at nadir [4]: −5.4%
- Drug death [4]: 0/7
- Regressions Complete [4]: 0/7
- Regressions Partial [4]: 1/7
- Tumor free survivors at day 120 [4]: 0/7
- day of nadir [4]: 16 days
- Biological interpretation [5]: Highly Active
- ΔT/ΔC in % (day 22) [5]: <0%
- Biological interpretation (5.6 mg/kg per injection (total 11.2) IV days 15; 19; listed as docetaxel): highly active
- Tumor volume changes from baseline: Median (nMad) (5.6 mg/kg, day 19): 0
- Tumor volume changes from baseline: Median (nMad) (5.6 mg/kg, day 22): −36
- Tumor volume changes from baseline: Median (nMad) (5.6 mg/kg, day 25): 168
- Tumor volume changes from baseline: Median (nMad) (5.6 mg/kg, day 28): 342
- Tumor volume changes from baseline: Median (nMad) (5.6 mg/kg; day 19): 0 (106.7)
- Tumor volume changes from baseline: Median (nMad) (5.6 mg/kg; day 22): −36 (60.8)
- Tumor volume changes from baseline: Median (nMad) (5.6 mg/kg; day 25): 168 (80.1)
- Tumor volume changes from baseline: Median (nMad) (5.6 mg/kg; day 28): 342 (89)
- Tumor volume changes from baseline: Median (nMad) (5.6 mg/kg; day 32): 480
- Tumor volume changes from baseline: Median (nMad) (5.6 mg/kg; day 35): 2005
- Average body weight change in % per mouse at nadir [6]: −6.6%
- Drug death [6]: 0/7
- Regressions Complete [6]: 0/7
- Regressions Partial [6]: 6/7
- Tumor free survivors at day 120 [6]: 0/7
- day of nadir [6]: 23 days
- Biological interpretation [7]: Highly Active
- ΔT/ΔC in % (day 22) [7]: <0%
- Biological interpretation (9.0 mg/kg per injection (total 18) IV days 15; 19; listed as docetaxel): highly active
- Tumor volume changes from baseline: Median (nMad) (9 mg/kg, day 19): 0
- Tumor volume changes from baseline: Median (nMad) (9 mg/kg, day 22): −101
- Tumor volume changes from baseline: Median (nMad) (9 mg/kg, day 25): −126
- Tumor volume changes from baseline: Median (nMad) (9 mg/kg, day 28): −126
- Tumor volume changes from baseline: Median (nMad) (9 mg/kg; day 19): 0 (37.1)
- Tumor volume changes from baseline: Median (nMad) (9 mg/kg; day 22): −101
- Tumor volume changes from baseline: Median (nMad) (9 mg/kg; day 25): −126
- Tumor volume changes from baseline: Median (nMad) (9 mg/kg; day 28): −126 (46)
- Tumor volume changes from baseline: Median (nMad) (9 mg/kg; day 32): −49
- Tumor volume changes from baseline: Median (nMad) (9 mg/kg; day 35): 201
- Average body weight change in % per mouse at nadir [8]: −10.5%
- Drug death [8]: 0/7
- Regressions Complete [8]: 3/7
- Regressions Partial [8]: 7/7
- day of nadir [8]: 27 days
- Biological interpretation [9]: Highly Active
- Tumor free survivors at day 120 [9]: 0/7
- ΔT/ΔC in % (day 22) [9]: <0%
- Biological interpretation [10]: highly active
- Tumor free survivors at day 120 [10]: no TFS
- Tumor volume changes from baseline: Median (nMad) (14.5 mg/kg, day 19): −18
- Tumor volume changes from baseline: Median (nMad) (14.5 mg/kg, day 22): −156
- Tumor volume changes from baseline: Median (nMad) (14.5 mg/kg, day 25): −173
- Tumor volume changes from baseline: Median (nMad) (14.5 mg/kg, day 28): −164
- Tumor volume changes from baseline: Median (nMad) (14.5 mg/kg; day 19): −18 (77.1)
- Tumor volume changes from baseline: Median (nMad) (14.5 mg/kg; day 22): −156
- Tumor volume changes from baseline: Median (nMad) (14.5 mg/kg; day 25): −173
- Tumor volume changes from baseline: Median (nMad) (14.5 mg/kg; day 28): −164
- Tumor volume changes from baseline: Median (nMad) (14.5 mg/kg; day 32): −162
- Tumor volume changes from baseline: Median (nMad) (14.5 mg/kg; day 35): −162
- Tumor volume changes from baseline: Median (nMad) (14.5 mg/kg; day 39): 290
- Tumor volume changes from baseline: Median (nMad) (14.5 mg/kg; day 41): 274
- Tumor volume changes from baseline: Median (nMad) (14.5 mg/kg; day 43): 427.5
- Tumor volume changes from baseline: Median (nMad) (14.5 mg/kg; day 45): 574

Source: patent US20140350273A1, “PEDIATRIC USES OF CABAZITAXEL” (AVENTIS PHARMA S.A., priority 2012, published 2014)
